In US20070167377A1, “Inhibitors of glycinamide ribonucleotide transformylase” (priority 2002, published 2007):
Entries after “also recorded” stand apart in the source; their conditions may differ. Like-named read-outs stand apart in the source and are kept apart here.

Assays:
[1] = target: T1, recombinant human GAR Tfase (rhGAR Tfase) (Homo sapiens, UniProt P22102); experiment: Recombinant human GAR Tfase inhibition; type: biochemical; settings: for potency increase of γ-pentaglutamate over monoglutamate: 21 vs 3, 22 vs 15
T1 construct: includes residues 808-1010 from the human trifunctional enzyme (purD-purM-purN); hexa-histidine (C); made in house; host or cells: E. coli BL21 (DE3) Gold, pet22b vector
T1 sequence (P22102 808-1010): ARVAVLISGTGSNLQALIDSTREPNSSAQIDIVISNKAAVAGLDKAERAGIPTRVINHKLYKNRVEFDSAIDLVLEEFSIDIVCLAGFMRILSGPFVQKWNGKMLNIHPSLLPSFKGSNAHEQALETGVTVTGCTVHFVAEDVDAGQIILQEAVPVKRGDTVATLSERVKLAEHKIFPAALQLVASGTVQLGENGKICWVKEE
Experimental: The gene was subcloned into the pet22b vector using the Ndel/Xhol cloning site with ahexa-histidine tag at the C-terminus. The plasmid was transformed into the E. coli expression strain BL21 (DE3) Gold. […] The purified protein was used in the inhibition assays, cytotoxic assays and crystallization experiments.
Briefly, each compound was dissolved in dimethyl sulfoxide (DMSO) and then diluted in assay buffer.

CCRF-CEM/MTX cell line = experiment: Cytotoxic assay, reduced folate carrier deficient mutant; type: cell-based, human; settings: impaired reduced folate carrier; for IC50: Homo sapiens
Experimental: (§1) The cytotoxic activity of the compounds was measured using CCRF-CEM human leukemia cells, as described previously (Boger, D. L., et al., Bioorg. Med. Chem. 1997, 5, 1847-1852). Two mutant cell lines, CCRF-CEM/MTX and CCRF-CEM/FPGS^− were used to determine the dependence on the reduced folate active transport system and folylpolyglutamate synthetase (FPGS), respectively (Jansen, G., et al., Cancer Res. 1989, 49, 2455-2459).

E. coli GAR Tfase [2] = target: T2, E. coli GAR Tfase (Escherichia coli, UniProt P08179); experiment: E. coli GAR Tfase inhibition; type: biochemical; settings: for fold less potent than the corresponding monoglutamate: α-pentaglutamate vs monoglutamate (25 vs 3, 26 vs 15)
Experimental: (§2) GAR and AICAR Tfase inhibition studies were conducted as previously detailed^28 with the exception that the AICAR Tfase inhibition was conducted in the absence of 5 mM β-mercaptoethanol and screened with 10 nM enzyme, […] inhibitor and […] of cofactor. The DHFR inhibition study was conducted as previously detailed with 10 nM enzyme, […] H2F, […] NADPH and […] inhibitor.
The Ki values for the folate analogues were measured as previously described (Boger, D. L., et al., Bioorg. Med. Chem. 1997, 5, 1817-1830). Briefly, each compound was dissolved in dimethyl sulfoxide (DMSO) and then diluted in assay buffer. […] Thus, all assays were conducted by mixing 10 μM 10-formyl-5,8-dideazafolate (fDDF), 20 μM inhibitor in total volume of 1 mL buffer (0.1 M HEPES, pH 7.5) at 26° C., and the reaction initiated by the addition of 76 nM E. coli or human GAR Tfase. The assay monitors the deformylation of fDDF (Δε=18.9 mM^−1 cm^−1 at 295 nm) resulting from the transfer of the formyl group to β-GAR.

CCRF-CEM cell line [3] = experiment: CCRF-CEM cytotoxic assay; type: cell-based, human; settings: for IC50: Homo sapiens
Experimental: as §1

[4] = test system: CCRF-CEM/FPGS^− cell line; experiment: Cytotoxic assay, FPGS deficient mutant; type: cell-based, human; settings: lacks folylpolyglutamate synthase
Experimental: as §1

Chemical stability = type: physicochemical
CCRF-CEM cell line [5] = settings: earlier studies; cited from earlier work
[6] = earlier studies; cited from earlier work
E. coli GAR Tfase [7] = target: T2, E. coli GAR Tfase; settings: 10-formyl-TDAF, earlier studies; cited from earlier work
human AICAR Tfase = human AICAR Tfase (Homo sapiens, UniProt P31939); experiment: AICAR Tfase inhibition; type: biochemical; settings: for fold enhanced binding affinity / more potent than the corresponding monoglutamate: 21 vs 3, 22 vs 15, 26 vs 15
Experimental: as §2

DHFR = DHFR (Escherichia coli, UniProt P0ABQ4); experiment: DHFR inhibition (101, 102); type: biochemical; settings: DHFR
[8] = target: thymidylate synthetase (TS) (Homo sapiens, UniProt P04818); experiment: Thymidylate synthetase inhibition; type: biochemical; settings: TS
[9] = purines (hypoxanthine) absent in the media
[10] = media supplemented with a purine

In the case of `Nc1nc(N)c(CCCC(C(=O)C(F)(F)F)c2ccc(C(=O)O)cc2)c(=O)[nH]1` (centres unmarked) [Compound 111, 4-[4-(2,4-diamino-6-oxo-1,6-dihydropyrimidin-5-yl)-1-(2,2,2-trifluoro-acetyl)butyl]benzoic acid], the “inhibition of GAR Tfase (in words)” value [1] is reported as “lack of inhibition”.
With `Nc1nc(N)c(CCCC(C=O)c2ccc(C(=O)N[C@@H](CCC(=O)O)C(=O)O)cc2)c(=O)[nH]1` (some centres unmarked) [Compound 3] the Ki [1] was 14 nM, the IC50 (CCRF-CEM/MTX cell line) was over 100000 nM and the “cytotoxic activity (in words)” value (CCRF-CEM/MTX cell line) was “lack of cytotoxic activity; also recorded: lost activity”. For the same molecule, the Ki (E. coli GAR Tfase [2]; E. coli GAR Tfase) was 6000 nM, the IC50 (CCRF-CEM cell line [3]; [9]) was 60 nM and the “cytotoxic activity (in words)” value (CCRF-CEM cell line [3]; [10]) was “no activity”. For the same molecule, the “cytotoxic activity (in words)” value [4] was “inactivity; also recorded: lost cytotoxic activity” and the “chemical stability (in words)” value (Chemical stability) was “chemical instability; also recorded: facile oxidative decarbonylation”.
In the case of `Nc1nc2ccc(CC(C=O)c3ccc(C(=O)N[C@@H](CCC(=O)O)C(=O)O)cc3)cc2c(=O)[nH]1` (some centres unmarked) [Compound 103, 10-formyl-5,8,10-trideazafolic acid], the “cytotoxic activity (in words)” value (CCRF-CEM cell line [5]) is listed as “failed to exhibit effective cytotoxic activity”, the “chemical stability (in words)” value [6] is listed as “poor stability; also recorded: facile oxidative decarbonylation” and the Ki (E. coli GAR Tfase [7]) is listed as 260 nM.
For `CN(C)N=CC(CCCc1c(N)nc(N)[nH]c1=O)c1ccc(C(=O)N[C@@H](CCC(=O)O)C(=O)O)cc1` (stereo partly drawn) [Compound 15, N{4-[5-(2,4-Diamino-6(1H)-pyrimidinon-5-yl)-1-(dimethylhydrazono)pent-2-yl]benzoyl}-L-glutamic Acid], the Ki ([1]; rhGAR Tfase, read-out: Ki) was 170 nM, the IC50 (CCRF-CEM/MTX cell line) was over 100000 nM and the “cytotoxic activity (in words)” value (CCRF-CEM/MTX cell line) was “lack of cytotoxic activity”. The “cytotoxic activity (in words)” value [4] was “inactivity; also recorded: lost cytotoxic activity” and the “fold less effective than 3” value (human AICAR Tfase; 15 vs 3) was 30 fold.
In the case of `Nc1nc(N)c(CCCC(CO)c2ccc(C(=O)N[C@@H](CCC(=O)O)C(=O)O)cc2)c(=O)[nH]1` (stereo partly drawn) [Compound 17, N-{4-[5-(2,4-Diamino-6(1H)-pyrimidinon-5-yl)-1-hydroxypent-2-yl]benzoyl}-L-glutamic Acid], the IC50 (CCRF-CEM/MTX cell line) is reported as over 100000 nM, the “cytotoxic activity (in words)” value (CCRF-CEM/MTX cell line) is reported as “lack of cytotoxic activity” and the “inhibition of / binding affinity for E. coli GAR Tfase (in words)” value (“inhibition of / binding affinity” for short) (E. coli GAR Tfase [2]) is reported as “significantly less active”. For the same molecule, the “cytotoxic activity (in words)” value [4] was “inactivity” and the “inhibition of AICAR Tfase (in words)” value (human AICAR Tfase) was “inactive”.
In the case of `Nc1nc(N)c(CCCC(C=O)c2ccc(C(=O)N[C@@H](CCC(=O)N[C@@H](CCC(=O)N[C@@H](CCC(=O)N[C@@H](CCC(=O)N[C@@H](CCC(=O)O)C(=O)O)C(=O)O)C(=O)O)C(=O)O)C(=O)O)cc2)c(=O)[nH]1` (stereo partly drawn) [Compound 21, N-{4-[5-(2,4-Diamino-6(1H)-pyrimidinon-5-yl)-1-formyl-but-2-yl]benzoyl}-L-γ-glutamyl-L-γ-glutamyl-L-γ-glutamyl-L-γ-glutamyl-L-γ-glutamic Acid], the “potency increase of γ-pentaglutamate over monoglutamate” value [1] is reported as “did not enhance”, the “inhibition of / binding affinity” value (E. coli GAR Tfase [2]) is reported as “only marginal enhanced binding affinity” and the “cytotoxic activity (in words)” value (CCRF-CEM cell line [3]) is reported as “little or no cytotoxic activity”. The “fold enhanced binding affinity / more potent than the corresponding monoglutamate” value (human AICAR Tfase) was 4 fold.
In the case of `Nc1nc(N)c(CCCCc2ccc(C(=O)N[C@@H](CCC(=O)O)C(=O)O)cc2)c(=O)[nH]1` [DDACTHF, reference compound], the IC50 (CCRF-CEM cell line [3]; purines absent in the media) is reported as 2700 nM.
With `Nc1nc(N)c(CCCC(c2ccc(C(=O)N[C@@H](CCC(=O)O)C(=O)O)cc2)C(O)C(F)(F)F)c(=O)[nH]1` (stereo partly drawn) [Compound 102, N-{4-[4-(2,4-Diamino-6-oxo-1,6-dihydropyrimidin-5-yl)-1-(2,2,2-trifluoro-1-hydroxy-ethyl)butyl]benzoyl}-L-glutamic acid] the “times less potent than 10-CF3CO-DDACTHF” value ([1]; comparator 101) was “ca. 50 times”, the Ki ([1]; rhGAR Tfase, read-out: Ki) was 900 nM and the “cytotoxic activity (in words)” value (CCRF-CEM/MTX cell line) was “lost activity”. For the same molecule, the Ki (DHFR) was over 100000 nM, the Ki [8] was over 100000 nM and the IC50 (CCRF-CEM cell line [3]; purines absent in the media) was 1100 nM. The “cytotoxic activity (in words)” value [4] was “lacked or lost activity”, the “inhibition of AICAR Tfase (in words)” value (human AICAR Tfase) was “inactivity” and the Ki (human AICAR Tfase; AICAR Tfase) was over 100000 nM.
For `Nc1nc2c(c(=O)[nH]1)C[C@@H](CCc1ccc(C(=O)N[C@@H](CCC(=O)O)C(=O)O)cc1)CN2` [Lometrexol, (6R)-5,10-dideazatetrahydrofolate, reference compound], the “cytotoxic activity (in words)” value (CCRF-CEM/MTX cell line) was “lost activity”, the IC50 (CCRF-CEM cell line [3]; [9]) was 230 nM and the IC50 (CCRF-CEM cell line [3]; purines absent in the media) was 150 nM. The “cytotoxic activity (in words)” value (CCRF-CEM cell line [3]; [10]) was “no activity” and the “cytotoxic activity (in words)” value [4] was “lacked or lost activity”.
For `Nc1nc(N)c(CCCC(=O)c2ccc(C(=O)N[C@@H](CCC(=O)O)C(=O)O)cc2)c(=O)[nH]1` [Compound 14, N-{4-[4-(2,4-Diamino-6(1H)-pyrimidinon-5-yl)-1-oxo-but-1-yl]benzoyl}-L-glutamic Acid], the IC50 (CCRF-CEM/MTX cell line) was over 100000 nM, the “cytotoxic activity (in words)” value (CCRF-CEM/MTX cell line) was “lack of cytotoxic activity” and the “inhibition of / binding affinity” value (E. coli GAR Tfase [2]) was “significantly less active”. For the same molecule, the IC50 (CCRF-CEM cell line [3]; purines absent in the media) was under 200 nM, the “cytotoxic activity (in words)” value [4] was “inactivity” and the “inhibition of AICAR Tfase (in words)” value (human AICAR Tfase) was “inactive”.
For `Nc1nc(N)c(CCCC(C=O)c2ccc(C(=O)N[C@@H](CCC(=O)O)C(=O)N[C@@H](CCC(=O)O)C(=O)N[C@@H](CCC(=O)O)C(=O)N[C@@H](CCC(=O)O)C(=O)N[C@@H](CCC(=O)O)C(=O)O)cc2)c(=O)[nH]1` (stereo partly drawn) [Compound 25, N{4-[5-(2,4-Diamino-6(1H)-pyrimidinon-5-yl)-1-formyl-but-2-yl]benzoyl}-L-α-glutamyl-L-α-glutamyl-L-α-glutamyl-L-α-glutamyl-L-α-glutamic Acid], the “fold less potent than the corresponding monoglutamate” value (E. coli GAR Tfase [2]) was 3 fold, the “cytotoxic activity (in words)” value (CCRF-CEM cell line [3]) was “little or no cytotoxic activity” and the “fold less potent than the aldehyde monoglutamate 3” value (human AICAR Tfase; 25 vs 3) was 16 fold.
With `CN(C)N=CC(CCCc1c(N)nc(N)[nH]c1=O)c1ccc(C(=O)N[C@@H](CCC(=O)O)C(=O)N[C@@H](CCC(=O)O)C(=O)N[C@@H](CCC(=O)O)C(=O)N[C@@H](CCC(=O)O)C(=O)N[C@@H](CCC(=O)O)C(=O)O)cc1` (stereo partly drawn) [Compound 26, N{4-[5-(2,4-Diamino-6(1H)-pyrimidinon-5-yl)-1-(dimethylhydrazono)pent-2-yl]benzoyl}-L-α-glutamyl-L-α-glutamyl-L-α-glutamyl-L-α-glutamyl-L-α-glutamic Acid] the “orders of magnitude less potent than the corresponding γ-pentaglutamate 22” value (E. coli GAR Tfase [2]; 26 vs 22) was 1-2 orders of magnitude, the “fold less potent than the corresponding monoglutamate” value (E. coli GAR Tfase [2]) was 4 fold and the “cytotoxic activity (in words)” value (CCRF-CEM cell line [3]) was “little or no cytotoxic activity”. The “fold enhanced binding affinity / more potent than the corresponding monoglutamate” value (human AICAR Tfase) was 4 fold and the “orders of magnitude less potent than the corresponding γ-pentaglutamate 22” value (human AICAR Tfase; 26 vs 22) was 1-2 orders of magnitude.
In the case of `CN(C)N=CC(CCCc1c(N)nc(N)[nH]c1=O)c1ccc(C(=O)N[C@@H](CCC(=O)N[C@@H](CCC(=O)N[C@@H](CCC(=O)N[C@@H](CCC(=O)N[C@@H](CCC(=O)O)C(=O)O)C(=O)O)C(=O)O)C(=O)O)C(=O)O)cc1` (stereo partly drawn) [Compound 22, N{4-[5-(2,4-Diamino-6(1H)-pyrimidinon-5-yl)-1-(dimethylhydrazono)pent-2-yl]benzoyl}-L-γ-glutamyl-L-γ-glutamyl-L-γ-glutamyl-L-γ-glutamyl-L-γ-glutamic Acid], the “potency increase of γ-pentaglutamate over monoglutamate” value [1] is reported as 5 fold, the “inhibition of / binding affinity” value (E. coli GAR Tfase [2]) is reported as “only marginal enhanced binding affinity” and the “cytotoxic activity (in words)” value (CCRF-CEM cell line [3]) is reported as “little or no cytotoxic activity”. For the same molecule, the “fold enhanced binding affinity / more potent than the corresponding monoglutamate” value (human AICAR Tfase) was 140 fold.
